Common to all, as to format: biochemical
Assay [1] addresses T1, JAK3 (Homo sapiens, UniProt P52333).
T1 sequence (P52333 1-1124): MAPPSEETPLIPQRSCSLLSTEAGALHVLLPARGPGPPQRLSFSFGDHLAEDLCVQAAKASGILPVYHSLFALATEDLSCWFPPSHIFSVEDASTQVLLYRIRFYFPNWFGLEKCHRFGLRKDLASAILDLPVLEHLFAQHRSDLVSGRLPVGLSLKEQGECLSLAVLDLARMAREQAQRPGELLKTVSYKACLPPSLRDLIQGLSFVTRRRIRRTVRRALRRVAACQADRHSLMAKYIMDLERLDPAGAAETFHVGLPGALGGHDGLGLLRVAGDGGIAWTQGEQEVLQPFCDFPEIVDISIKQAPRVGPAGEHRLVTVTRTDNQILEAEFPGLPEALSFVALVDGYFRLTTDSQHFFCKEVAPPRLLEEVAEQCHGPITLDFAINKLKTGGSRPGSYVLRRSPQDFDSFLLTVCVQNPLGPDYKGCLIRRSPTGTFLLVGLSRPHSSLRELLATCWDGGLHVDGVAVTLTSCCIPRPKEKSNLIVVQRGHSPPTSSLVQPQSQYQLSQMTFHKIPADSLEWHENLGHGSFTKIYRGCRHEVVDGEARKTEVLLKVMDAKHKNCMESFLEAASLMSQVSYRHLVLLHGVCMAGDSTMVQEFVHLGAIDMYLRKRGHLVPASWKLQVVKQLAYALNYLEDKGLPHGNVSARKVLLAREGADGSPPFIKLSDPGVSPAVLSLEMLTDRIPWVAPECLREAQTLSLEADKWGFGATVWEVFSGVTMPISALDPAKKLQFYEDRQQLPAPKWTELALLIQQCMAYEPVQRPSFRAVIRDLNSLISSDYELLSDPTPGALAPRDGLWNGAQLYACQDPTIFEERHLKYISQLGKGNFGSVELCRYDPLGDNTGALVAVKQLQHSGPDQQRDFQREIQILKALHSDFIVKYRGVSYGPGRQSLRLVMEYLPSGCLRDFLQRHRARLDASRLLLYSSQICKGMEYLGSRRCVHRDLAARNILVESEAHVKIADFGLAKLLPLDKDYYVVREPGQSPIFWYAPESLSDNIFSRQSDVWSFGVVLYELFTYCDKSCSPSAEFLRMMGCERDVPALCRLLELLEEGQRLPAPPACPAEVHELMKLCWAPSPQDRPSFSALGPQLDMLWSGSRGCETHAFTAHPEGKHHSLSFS
The assay is described as follows: Inhibition of a panel of kinases, in vitro HotSpot kinase assay: JAK3. Conditions: D-compounds panel data; 1 μM ATP; read-out: IC50 JAK3.

Assay [2] deals with T2, BTK-WT (Homo sapiens, UniProt Q06187).
T2 construct: purified from insect cells as a full-length construct containing an N-terminal 6X-His tag; His6 (N); made in house; host or cells: insect cells (baculovirus Sf21 in Method B)
T2 sequence (Q06187 whole entry): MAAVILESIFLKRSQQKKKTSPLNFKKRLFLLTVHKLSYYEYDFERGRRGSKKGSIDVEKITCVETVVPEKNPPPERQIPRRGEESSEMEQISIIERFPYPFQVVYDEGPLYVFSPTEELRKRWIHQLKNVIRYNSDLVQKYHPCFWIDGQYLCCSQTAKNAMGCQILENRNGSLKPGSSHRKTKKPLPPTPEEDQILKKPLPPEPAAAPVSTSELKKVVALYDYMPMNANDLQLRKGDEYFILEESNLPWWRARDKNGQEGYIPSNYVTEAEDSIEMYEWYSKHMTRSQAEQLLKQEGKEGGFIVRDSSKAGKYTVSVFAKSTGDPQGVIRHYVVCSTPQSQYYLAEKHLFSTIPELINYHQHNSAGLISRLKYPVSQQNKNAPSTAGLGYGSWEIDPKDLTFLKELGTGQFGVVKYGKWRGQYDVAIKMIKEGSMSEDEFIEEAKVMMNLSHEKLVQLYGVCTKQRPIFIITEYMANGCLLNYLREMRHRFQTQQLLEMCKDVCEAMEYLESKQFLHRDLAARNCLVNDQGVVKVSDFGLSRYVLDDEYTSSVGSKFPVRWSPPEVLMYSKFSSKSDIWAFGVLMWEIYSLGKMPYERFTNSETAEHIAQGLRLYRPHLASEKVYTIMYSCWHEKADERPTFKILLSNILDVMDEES
Kind of assay: Btk in vitro inhibitory activity (one of Method A TR-FRET, Method B electrophoretic mobility shift, Method C radiometric filter binding). As to conditions: D-compounds panel data; read-out: IC50 BTK-WT. In general terms: A gel shift assay detects complexes by their altered migration in electrophoresis.

Assay [3] deals with LCK (Homo sapiens, UniProt P06239). Kind of assay: Inhibition of a panel of kinases, in vitro HotSpot kinase assay: LCK. As to conditions: D-compounds panel data; 1 μM ATP; read-out: IC50 LCK.
LCK, sequence (P06239 whole entry): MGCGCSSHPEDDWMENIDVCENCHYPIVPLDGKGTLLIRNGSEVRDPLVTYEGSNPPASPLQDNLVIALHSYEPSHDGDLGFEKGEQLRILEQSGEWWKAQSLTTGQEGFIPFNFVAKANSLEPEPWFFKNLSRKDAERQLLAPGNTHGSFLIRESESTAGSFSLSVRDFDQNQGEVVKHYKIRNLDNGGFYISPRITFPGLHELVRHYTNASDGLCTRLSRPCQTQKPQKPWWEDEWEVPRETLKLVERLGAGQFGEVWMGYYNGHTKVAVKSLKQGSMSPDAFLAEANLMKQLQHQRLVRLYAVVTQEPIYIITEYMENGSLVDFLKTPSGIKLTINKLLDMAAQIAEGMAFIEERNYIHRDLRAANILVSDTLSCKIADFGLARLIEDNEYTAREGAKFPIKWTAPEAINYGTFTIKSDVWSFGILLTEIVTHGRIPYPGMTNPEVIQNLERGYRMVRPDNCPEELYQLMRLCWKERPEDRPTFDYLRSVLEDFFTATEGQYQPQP
Assay [4] deals with EGFR (Homo sapiens, UniProt P00533). The assay is described as follows: Inhibition of a panel of kinases, in vitro HotSpot kinase assay: EGFR. Conditions: D-compounds panel data; 1 μM ATP. The procedure: The degree of inhibition of a panel of kinases is determined using the in vitro HotSpot kinase assay (purified enzymes, ^33P-ATP, an appropriate substrate and 1 μM ATP).
EGFR, sequence (P00533 25-1210): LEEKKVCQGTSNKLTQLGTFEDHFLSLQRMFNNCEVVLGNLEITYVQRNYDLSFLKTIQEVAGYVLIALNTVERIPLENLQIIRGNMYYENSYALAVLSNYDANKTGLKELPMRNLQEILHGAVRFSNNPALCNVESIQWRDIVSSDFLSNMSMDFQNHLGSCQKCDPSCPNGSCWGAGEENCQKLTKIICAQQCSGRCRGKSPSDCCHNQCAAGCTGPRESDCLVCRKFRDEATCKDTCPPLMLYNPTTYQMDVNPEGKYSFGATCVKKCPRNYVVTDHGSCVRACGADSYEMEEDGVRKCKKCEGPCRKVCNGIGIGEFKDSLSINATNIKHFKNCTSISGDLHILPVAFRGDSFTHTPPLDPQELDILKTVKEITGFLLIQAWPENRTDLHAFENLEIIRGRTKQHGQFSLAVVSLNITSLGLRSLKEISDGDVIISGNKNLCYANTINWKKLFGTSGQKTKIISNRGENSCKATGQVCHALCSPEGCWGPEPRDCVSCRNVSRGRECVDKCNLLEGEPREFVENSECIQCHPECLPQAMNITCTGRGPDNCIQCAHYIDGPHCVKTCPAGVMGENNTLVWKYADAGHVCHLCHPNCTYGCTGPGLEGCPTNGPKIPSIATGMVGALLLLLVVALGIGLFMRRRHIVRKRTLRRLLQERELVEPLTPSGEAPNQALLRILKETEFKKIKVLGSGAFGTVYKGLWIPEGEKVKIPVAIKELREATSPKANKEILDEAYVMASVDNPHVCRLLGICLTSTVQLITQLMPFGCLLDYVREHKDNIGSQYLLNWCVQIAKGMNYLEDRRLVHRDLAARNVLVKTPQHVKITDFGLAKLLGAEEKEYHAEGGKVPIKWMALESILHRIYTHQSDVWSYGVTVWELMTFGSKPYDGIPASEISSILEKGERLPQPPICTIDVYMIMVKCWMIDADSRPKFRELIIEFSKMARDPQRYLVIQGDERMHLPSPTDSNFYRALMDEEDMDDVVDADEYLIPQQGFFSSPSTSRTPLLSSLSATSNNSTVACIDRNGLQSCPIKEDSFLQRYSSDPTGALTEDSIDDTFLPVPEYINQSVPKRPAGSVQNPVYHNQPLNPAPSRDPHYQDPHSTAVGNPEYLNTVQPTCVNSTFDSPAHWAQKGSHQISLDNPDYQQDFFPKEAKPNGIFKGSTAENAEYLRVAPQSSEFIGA

These results are taken from patent US20210070748A1, “INHIBITORS OF BRUTONS TYROSINE KINASE” (Pharmacyclics LLC, priority 2015, published 2021).

Each structure is given as a SMILES string.

By IC50 is commonly meant the concentration that gives 50% inhibition.

Take `C[C@H]1C[C@@H](NC(=O)c2ccc(C3CC3)cc2)CN(c2cnc(C(N)=O)c(Nc3cnn(C)c3)n2)C1` [Example D-30, 5-[(3R,5S)-3-(4-cyclopropylbenzamido)-5-methylpiperidin-1-yl]-3-[(1-methyl-1H-pyrazol-4-yl)amino]pyrazine-2-carboxamide]: the IC50 is over 10000 nM in assay [1], at most 10 nM in assay [2], 100 to 1000 nM in assay [3] and over 10000 nM in assay [4].
On to `C[C@@H]1[C@H](NC(=O)c2ccc(C3CC3)cc2)CCCN1c1cnc(C(N)=O)c(Nc2cnn(CC3CCC(F)(F)CC3)c2)n1` [Example D-321, 5-[(2R,3R)-3-(4-cyclopropylbenzamido)-2-methylpiperidin-1-yl]-3-({1-[(4,4-difluorocyclohexyl)methyl]-1H-pyrazol-4-yl}amino)pyrazine-2-carboxamide], for which the IC50 in assay [1] was over 10000 nM; in assay [2], 10 to 100 nM; in assay [3], 1000 to 10000 nM; in assay [4], over 10000 nM.
Regarding `C[C@@H]1[C@H](NC(=O)c2ccc(C(F)(F)F)nc2)CCCN1c1cnc(C(N)=O)c(Nc2cnn(C)c2)n1` [Example D-91, 3-[(1-methyl-1H-pyrazol-4-yl)amino]-5-[(2R,3R)-2-methyl-3-[6-(trifluoromethyl)pyridine-3-amido]piperidin-1-yl]pyrazine-2-carboxamide], the IC50 in assay [1] was 100 to 1000 nM; in assay [2], at most 10 nM; in assay [3], 10 to 100 nM; in assay [4] it was 100 to 1000 nM.
